From ChEMBL document CHEMBL1158131, “Daryamides A-C, weakly cytotoxic polyketides from a marine-derived actinomycete of the genus Streptomyces strain CNQ-085” (J Nat Prod, 2006)
Values after ≈ are worked out from the molar mass of the structure shown. Active and inactive are the calls of the source. The calls are words filed in the database; no cut-off is given here.

Assays:
HCT-116 = experiment: Cytotoxicity against human HCT116 cells; assay type: functional, cell-based
Candida albicans = experiment: Antifungal activity against Candida albicans; assay type: functional
Staphylococcus aureus = experiment: Antibacterial activity against methicillin-resistant Staphylococcus aureus; assay type: functional, organism-based

Structure (SMILES)	IC50 (HCT-116) [µg/mL]	Activity (Candida albicans)	Activity (Staphylococcus aureus)	MIC (Candida albicans) [µg/mL]
CC(C)C/C=C/C=C/C(N)=O	21.7 (≈ 142 µM)	inactive	inactive	
CC(C)C/C=C/C=C/C(=O)NC1=C[C@@](O)(CCC(N)=O)[C@H](O)CC1=O [DARYAMIDE A]	3.15 (≈ 8.99 µM)		inactive	62.5 (≈ 178 µM)
CC(C)C/C=C/C=C/C(=O)NC1=CC(O)(CCC(N)=O)C=CC1=O (configuration not stated) [DARYAMIDE B]	9.99 (≈ 30.1 µM)		inactive	125 (≈ 376 µM)
CC(C)/C=C/C=C/C(=O)NC1=CC(O)(CCC(N)=O)C=CC1=O (configuration not stated) [DARYAMIDE C]	10 (≈ 31.5 µM)	inactive	inactive	
